Data reported in patent US20120196854A1, “PHARMACEUTICAL COMPOSITION COMPRISING AROMATIC HETEROCYCLIC COMPOUND” (Kyowa Hakko Kirin Co., Ltd., priority 2009, published 2012).

Tests used:
[1] = system: PGD2 production in mouse ear; experiment: Inhibitory effect on PGD2 production in mouse ear caused by allergic reaction; format: in vivo; details: 10 mg/kg orally, 1 hour before inducing antigen-antibody reaction; BALB/c mice
Procedure: A test of PGD2 production in the mouse ear caused by allergic reaction was conducted according to the evaluation method of passive cutaneous anaphylaxis in the mouse ear by Inagaki et al. (Int.Arch.AllergyAppl. Immunol., 1988, 86 (3), 325-30) with some alteration. […]
One hour after the induction of antigen-antibody reaction, the mice were killed by cervical dislocation and the ears were cut off with scissors. […] The harvested pieces of ear tissue were immediately frozen in liquid nitrogen, and preserved at −80° C. until measurement of the quantity of PGD2.
The quantity of PGD2 was determined in the following manner. […]

[2] = system: antigen-induced nasal congestion in rats; experiment: Effect on antigen-induced nasal congestion in rats; format: in vivo, rat; details: 10 mg/kg orally, 1 hour before nasal antigen; OVA-sensitized BN rats
Procedure: Six-week-old male BN/CrljCrlj SPF/VAF rats were purchased from Charles River Japan (Hino, Kanagawa) and used for experiments. Equal amounts of a 0.4 mg/mL ovalbumin/saline solution (OVA: Grade III, Cat. No. A-5378, Sigma-Aldrich, St. Louis, Mo., USA) and a 20 mg/mL suspension of aluminum hydroxide (alum: Cat. No. 014-01925, Wako Pure Chemical Industries) in saline were mixed to give a sensitizing fluid. First, a suspension of inactivated killed pertussis bacteria (Cat. No. 15330-91, Nacalai Tesque, Tokyo) was doubly diluted with saline. The diluted suspension was subcutaneously administered on the back of each rat at a dose of 0.1 mL (containing 10 billion bacterial cells) per rat, and immediately after that, the sensitizing fluid was intraperitoneally administered at a dose of 1 mL per rat. […]
The nasal congestion was evaluated based on the elevation of the intranasal pressure determined in the following manner. […] The pressure inside the nasal cavity was detected using a pressure transducer branched from the end of the cannula for measurement, and analyzed using Win-PULMOS-III (M.I.P.S. Inc., Osaka). The pressure inside the nasal cavity was measured for 3 minutes immediately after the connection to the cannula for measurement and the artificial ventilator, and the data was calculated for a 3-minute average.

SMILES: O=C(O)c1cc(-c2ccco2)nc2ccc3nn(-c4ccccc4)nc3c12 [Compound 133, 7-(furan-2-yl)-2-phenyl-2H-[1,2,3]triazolo[4,5-f]quinoline-9-carboxylic acid]
- inhibition of PGD2 production in mouse ear caused by allergic reaction [1]: 88%
- inhibition of antigen-induced nasal congestion (intranasal pressure) [2]: 55%
